The compounds below were run on Septoria tritici—SEPTTR (assay: Leaf Blotch of Wheat, in vivo whole plant, 24 Hour Protectant). Conditions: 100 ppm spray, 24 hour protectant, wheat; control of fungal infection vs untreated plants.
With CCC1(C)CC(NC(=O)c2nccc(OC)c2O)CC(C)(C)C1 (stereo not drawn) [Compound 251] the “SEPTTR in vivo 1 Day Protectant” value was “+ +”.

Same assay, conditions: 100 ppm spray, wheat, 24 hour protectant, % control of fungal infection vs untreated plants
With COc1ccnc(C(=O)N[C@H]2COC(=O)[C@H](Cc3ccccc3)[C@@H](OC(=O)CC(C)C)[C@H](C)OC2=O)c1OC(C)=O [Compound 702] the “SEPTTR in vivo 1 Day Protectant” value was “+ +”. For C/C=C/C(=O)Oc1c(OC)ccnc1C(=O)N[C@H]1COC(=O)[C@H](Cc2ccccc2)[C@@H](OC(=O)C(C)C)[C@H](C)OC1=O [Compound 600], the “SEPTTR in vivo 1 Day Protectant” value was “+ +”.

The compounds below were run on Stagonospora nodorum (Leptosphaeria nodorum—LEPTNO) (assay: In vitro fungal growth inhibition, Stagonospora nodorum (LEPTNO)). Conditions: Leptosphaeria; 25 ppm in growth medium; read-out: LEPTNO in vitro Growth Inhibition.
Format: cell-based
CCC1(C)CC(NC(=O)c2nccc(OC)c2O)CC(C)(C)C1 (stereo not drawn) [Compound 251] was tested, and the inhibition at 25 ppm was over 80%. For COc1ccnc(C(=O)N[C@H]2COC(=O)[C@H](Cc3ccccc3)[C@@H](OC(=O)CC(C)C)[C@H](C)OC2=O)c1OC(C)=O [Compound 702], the inhibition at 25 ppm was over 80%. With C/C=C/C(=O)Oc1c(OC)ccnc1C(=O)N[C@H]1COC(=O)[C@H](Cc2ccccc2)[C@@H](OC(=O)C(C)C)[C@H](C)OC1=O [Compound 600] the inhibition at 25 ppm was over 80%.

What follows are compounds tested on Leptosphaeria nodorum—LEPTNO (assay: Glume Blotch of Wheat, in vivo whole plant, 24 Hour Protectant). Conditions: 100 ppm spray, 24 hour protectant, wheat; control of fungal infection vs untreated plants.
With CCC1(C)CC(NC(=O)c2nccc(OC)c2O)CC(C)(C)C1 (stereo not drawn) [Compound 251] the “LEPTNO in vivo 1 Day Protectant” value was “+ +”.

Same assay, conditions: 100 ppm spray, wheat, 24 hour protectant, % control of fungal infection vs untreated plants
COc1ccnc(C(=O)N[C@H]2COC(=O)[C@H](Cc3ccccc3)[C@@H](OC(=O)CC(C)C)[C@H](C)OC2=O)c1OC(C)=O [Compound 702] was tested, and the “LEPTNO in vivo 1 Day Protectant” value was “+ +”. For C/C=C/C(=O)Oc1c(OC)ccnc1C(=O)N[C@H]1COC(=O)[C@H](Cc2ccccc2)[C@@H](OC(=O)C(C)C)[C@H](C)OC1=O [Compound 600], the “LEPTNO in vivo 1 Day Protectant” value was “+ +”.

These compounds were tested on Erysiphe graminis—ERYSGT (assay: Powdery Mildew of Wheat, in vivo whole plant, 24 Hour Protectant). Conditions: Erysiphe; 100 ppm spray, 24 hour protectant, wheat; control of fungal infection vs untreated plants; read-out: ERYSGT in vivo 1 Day Protectant.
CCC1(C)CC(NC(=O)c2nccc(OC)c2O)CC(C)(C)C1 (stereo not drawn) [Compound 251] showed a pest or weed control at 100 ppm of under 25%.

Same assay, conditions: Erysiphe; 100 ppm spray, wheat, 24 hour protectant, % control of fungal infection vs untreated plants; read-out: ERYSGT in vivo 1 Day Protectant
COc1ccnc(C(=O)N[C@H]2COC(=O)[C@H](Cc3ccccc3)[C@@H](OC(=O)CC(C)C)[C@H](C)OC2=O)c1OC(C)=O [Compound 702] showed a pest or weed control at 100 ppm of under 25%. For C/C=C/C(=O)Oc1c(OC)ccnc1C(=O)N[C@H]1COC(=O)[C@H](Cc2ccccc2)[C@@H](OC(=O)C(C)C)[C@H](C)OC1=O [Compound 600], the pest or weed control at 100 ppm was under 25%.

The compounds below were run on Rhizoctonia solani (RHIZSO) (assay: microbe, parasite or virus in culture). Conditions: Rhizoctonia solani, read-out: RHIZSO in vitro Growth Inhibition.
Format: cell-based
CCC1(C)CC(NC(=O)c2nccc(OC)c2O)CC(C)(C)C1 (stereo not drawn) [Compound 251] showed an inhibition at 25 ppm of under 80%. COc1ccnc(C(=O)N[C@H]2COC(=O)[C@H](Cc3ccccc3)[C@@H](OC(=O)CC(C)C)[C@H](C)OC2=O)c1OC(C)=O [Compound 702] was tested, and the inhibition at 25 ppm was under 80%. C/C=C/C(=O)Oc1c(OC)ccnc1C(=O)N[C@H]1COC(=O)[C@H](Cc2ccccc2)[C@@H](OC(=O)C(C)C)[C@H](C)OC1=O [Compound 600] gave an inhibition at 25 ppm of under 80%.

The compounds below were run on Phytophthora infestans—PHYTIN (assay: whole plant or invertebrate). Conditions: Phytophthora, in Solanum lycopersicum, 24 h, read-out: PHYTIN in vivo 1 Day Protectant.
Format: in vivo
CCC1(C)CC(NC(=O)c2nccc(OC)c2O)CC(C)(C)C1 (stereo not drawn) [Compound 251] showed a pest or weed control at 100 ppm of 25 to 74%. In the case of COc1ccnc(C(=O)N[C@H]2COC(=O)[C@H](Cc3ccccc3)[C@@H](OC(=O)CC(C)C)[C@H](C)OC2=O)c1OC(C)=O [Compound 702], the pest or weed control at 100 ppm is reported as under 25%. Compound C/C=C/C(=O)Oc1c(OC)ccnc1C(=O)N[C@H]1COC(=O)[C@H](Cc2ccccc2)[C@@H](OC(=O)C(C)C)[C@H](C)OC1=O [Compound 600] has a pest or weed control at 100 ppm of under 25%.

These compounds were tested on Phytophthora infestans (PHYTIN) (assay: microbe, parasite or virus in culture). Conditions: Phytophthora infestans, read-out: PHYTIN in vitro Growth Inhibition.
Format: cell-based
Compound CCC1(C)CC(NC(=O)c2nccc(OC)c2O)CC(C)(C)C1 (stereo not drawn) [Compound 251] has an inhibition at 25 ppm of over 80%. COc1ccnc(C(=O)N[C@H]2COC(=O)[C@H](Cc3ccccc3)[C@@H](OC(=O)CC(C)C)[C@H](C)OC2=O)c1OC(C)=O [Compound 702] showed an inhibition at 25 ppm of under 80%. Compound C/C=C/C(=O)Oc1c(OC)ccnc1C(=O)N[C@H]1COC(=O)[C@H](Cc2ccccc2)[C@@H](OC(=O)C(C)C)[C@H](C)OC1=O [Compound 600] has an inhibition at 25 ppm of under 80%.

What follows are compounds tested on Mycosphaerella graminicola (Septoria tritici—SEPTTR) (assay: In vitro fungal growth inhibition, Mycosphaerella graminicola (SEPTTR)). Conditions: Zymoseptoria tritici; 25 ppm in growth medium; read-out: SEPTTR in vitro Growth Inhibition.
Format: cell-based
Compound CCC1(C)CC(NC(=O)c2nccc(OC)c2O)CC(C)(C)C1 (stereo not drawn) [Compound 251] has an inhibition at 25 ppm of over 80%. With COc1ccnc(C(=O)N[C@H]2COC(=O)[C@H](Cc3ccccc3)[C@@H](OC(=O)CC(C)C)[C@H](C)OC2=O)c1OC(C)=O [Compound 702] the inhibition at 25 ppm was under 80%. Compound C/C=C/C(=O)Oc1c(OC)ccnc1C(=O)N[C@H]1COC(=O)[C@H](Cc2ccccc2)[C@@H](OC(=O)C(C)C)[C@H](C)OC1=O [Compound 600] has an inhibition at 25 ppm of under 80%.

Each compound was assayed on Puccinia recondita—PUCCRT (assay: Brown Rust of Wheat, in vivo whole plant, 24 Hour Protectant). Conditions: 100 ppm spray, 24 hour protectant, wheat; control of fungal infection vs untreated plants.
With CCC1(C)CC(NC(=O)c2nccc(OC)c2O)CC(C)(C)C1 (stereo not drawn) [Compound 251] the “PUCCRT in vivo 1 Day Protectant” value was “+ +”.

Same assay, conditions: 100 ppm spray, wheat, 24 hour protectant, % control of fungal infection vs untreated plants
COc1ccnc(C(=O)N[C@H]2COC(=O)[C@H](Cc3ccccc3)[C@@H](OC(=O)CC(C)C)[C@H](C)OC2=O)c1OC(C)=O [Compound 702] was tested, and the “PUCCRT in vivo 1 Day Protectant” value was “+ +”. For C/C=C/C(=O)Oc1c(OC)ccnc1C(=O)N[C@H]1COC(=O)[C@H](Cc2ccccc2)[C@@H](OC(=O)C(C)C)[C@H](C)OC1=O [Compound 600], the “PUCCRT in vivo 1 Day Protectant” value was “+ +”.

Each compound was assayed on Ustilago maydis (USTIMA) (assay: microbe, parasite or virus in culture). Conditions: Mycosarcoma maydis, read-out: USTIMA in vitro Growth Inhibition.
Format: cell-based
CCC1(C)CC(NC(=O)c2nccc(OC)c2O)CC(C)(C)C1 (stereo not drawn) [Compound 251] was tested, and the inhibition at 25 ppm was under 80%. COc1ccnc(C(=O)N[C@H]2COC(=O)[C@H](Cc3ccccc3)[C@@H](OC(=O)CC(C)C)[C@H](C)OC2=O)c1OC(C)=O [Compound 702] gave an inhibition at 25 ppm of under 80%. Work on C/C=C/C(=O)Oc1c(OC)ccnc1C(=O)N[C@H]1COC(=O)[C@H](Cc2ccccc2)[C@@H](OC(=O)C(C)C)[C@H](C)OC1=O [Compound 600] yielded an inhibition at 25 ppm of under 80%.

Each compound was assayed on Magnaporthe grisea (Pyricularia oryzae—PYRIOR) (assay: microbe, parasite or virus in culture). Conditions: Pyricularia oryzae, read-out: PYRIOR in vitro Growth Inhibition.
Format: cell-based
With CCC1(C)CC(NC(=O)c2nccc(OC)c2O)CC(C)(C)C1 (stereo not drawn) [Compound 251] the inhibition at 25 ppm was under 80%. COc1ccnc(C(=O)N[C@H]2COC(=O)[C@H](Cc3ccccc3)[C@@H](OC(=O)CC(C)C)[C@H](C)OC2=O)c1OC(C)=O [Compound 702] was tested, and the inhibition at 25 ppm was under 80%. C/C=C/C(=O)Oc1c(OC)ccnc1C(=O)N[C@H]1COC(=O)[C@H](Cc2ccccc2)[C@@H](OC(=O)C(C)C)[C@H](C)OC1=O [Compound 600] was tested, and the inhibition at 25 ppm was over 80%.
